{
  "source": "patent US7618984B2",
  "about": "“Sulfonamide compound” (Asahi Kasei Pharma Corporation, priority 2005, dated 2009)",
  "key": {"[1]": {"system": "phosphorylation of myosin regulatory light chain", "test": "Inhibitory action on phosphorylation of myosin regulatory light chain (Test Example 1)", "type": "cell-based", "details": "Neutrophil, 5 min; human peripheral blood neutrophils, 25° C. for 5 minutes; read-out: IC50, compound concentration providing a phosphorylation inhibition ratio of 50% (myosin regulatory light chain)", "experimental": "A volume of 50 to 100 ml of peripheral blood collected from healthy volunteers was centrifuged by using Mono-Poly separator solution (Dainippon Pharmaceutical) to prepare a neutrophil containing fraction. The neutrophils were washed with PBS(−) and resuspended in Hanks' Balanced Salt Solution (HBSS+, Gibco) to prepare a cell suspension (8×10^6/ml). The cell suspension was diluted to 5×10^6/ml, introduced into Eppendorf tubes in a volume of 0.4 ml each, then 0.1 ml each of solutions of a test compound at various concentrations were added to the suspension and allowed to react at 25° C. for 5 minutes. After the reaction, 0.1 ml of trichloroacetic acid solution was added to each reaction mixture, the reaction mixture was gently shaken and centrifuged at 12,000 rpm (4° C., 5 minutes), and the supernatant was removed. Subsequently, 3 μl of 1 M Tris solution was added to the residue, the mixture was further mixed with 50 μl of extraction buffer (8 M urea, 0.02% 2-mercaptoethanol, 0.002% bromophenol blue) and left stand at room temperature for 1 hour. Then, the reaction mixture was loaded on a spin column (0.45 μm, Millipore) to remove the insoluble solids and a sample buffer for SDS polyacrylamide gel electrophoresis (25 mM, Tris-HCl pH 6.8, 2.5% 2-mercaptoethanol, 2% sodium dodecylsulfate, 5% sucrose, 0.002% bromophenol blue as final concentrations) was added, and 10 μl of each sample was subjected to electrophoresis.\nThe gel after the electrophoresis was blotted on a nitrocellulose membrane (BioRad), blocked with 5% skim milk, and reacted successively with antibodies pLC1 (Sakurada K. et al, Am. J. Physiol., 274, C1563-C1572 (1998)), which specifically recognize the phosphorylated myosin regulatory light chain, and donkey anti-mouse IgG (Chemicon) conjugated with horseradish peroxidase. The band of the phosphorylated myosin regulatory light chain was detected on a film by using ECL Plus Kit (Amersham Pharmacia Biotech). This band was subjected to quantification using a densitometer. By using this value, the inhibitory ratio (%) for phosphorylation of the myosin regulatory light chain was calculated by using the following equation. Phosphorylation inhibition ratio(%)=1−(Band intensity of phosphorylated myosin regulatory light chain with addition of the test compound/Band intensity of phosphorylated myosin regulatory light chain without addition of the test compound)×100\nFurther, the phosphorylation inhibition ratio was calculated with changing the concentrations of the test compound, and a compound concentration providing an inhibition ratio of 50% was obtained as IC50."}, "[2]": {"system": "rabbit normal intraocular pressure", "test": "Intraocular pressure reducing action (Test Example 2)", "type": "in vivo, Japanese white rabbit", "details": "Oryctolagus cuniculus, topical; 3 mM aqueous solution, 50 μl to the left eye; measured after 2, 4 and 6 hours; read-out: intraocular pressure reducing degree (max ΔIOP / intraocular pressure value immediately before administration × 100)", "experimental": "A Japanese white rabbit having a body weight of about 2 kg was placed in a positioner and naturalized for one week before the experiment. An opthalmologic local anesthesant (Benoxil) was administered to both eyes, and then intraocular pressure was measured by using a tonometer (Classic 30, Solan). A 3 mM aqueous solution of a test compound was administered in a volume of 50 μl to the left eye, and the right eye was not treated (control eye). The intraocular pressure values were measured for the left and right eyes immediately before, and 2, 4 and 6 hours after the administration of the aqueous solution of the test compound, and the difference of the measured values for the left and right eyes was considered an intraocular pressure reduction value of the test medicament at each measurement time. The largest difference of the values for the left and right eyes among the measured values at the measurement times (after 2, 4 and 6 hours) was considered the maximum intraocular pressure reduction value (max ΔIOP) of each test medicament. The intraocular pressure reducing degree representing the intraocular pressure reducing action of each test medicament was calculated according to the following formula. Since rabbits show significant daily variation of intraocular pressure, daily variation is added when change of intraocular pressure is measured over time, and the intraocular pressure reducing action may be overestimated. Therefore, we used this calculation method of intraocular pressure reduction value in order to minimize the influence of the variation. Intraocular pressure reducing degree (%)=(max ΔIOP/Intraocular pressure value immediately before administration)×100"}, "[3]": {"system": "neutrophils", "test": "Neutrophil migration inhibitory action, Boyden Chamber, FMLP (Test Example 3)", "type": "cell-based", "details": "0.5 h, human neutrophils, FMLP 1 μM, 37° C., 30 minutes, read-out: IC50, compound concentration providing a migration inhibition ratio of 50%", "experimental": "Neutrophils were isolated from 50 to 100 ml of peripheral blood collected from healthy human donors by the method described in Test Example 1 to obtain a cell suspension (8×10^6/ml). Subsequently, solutions of a test compound at various concentrations were introduced into wells of a 96-well plate in a volume of 125 μl per well, the cell suspension of an equivalent volume was added to it and the plate was preincubated at room temperature for 5 minutes. During the preincubation, FMLP (1 μM, Sigma) solution was added to the lower chamber to set Boyden Chamber, the preincubated cell suspension was added to the upper chamber in a volume of 200 μl per well, and the cells were allowed to migrate at 37° C. under 5% carbon dioxide for 30 minutes. The filter after the migration was collected, and the non-migrated cells adhered to the surface that faced the upper chamber were carefully wiped off. Then, the migrated cells on the back surface were stained with DifQuick dye solution (International Reagents), washed with water and dried, and then absorbance was measured at 595 nm. The inhibition ratio against migration (%) of a test compound was calculated by using the following equation: Migration inhibition ratio(%)=(1−Absorbance of the group with addition of test compound/Absorbance of the group without addition of test compound)×100\nFurther, the migration inhibitory ratio was calculated with changing the test compound concentration, and a compound concentration providing an inhibition ratio of 50% was obtained as IC50."}},
  "data": [
    {"smiles": "N[C@H]1CCN(S(=O)(=O)c2cccc3cncc(Cl)c23)C1", "note": "[Example 19-1, (S)-3-Amino-1-(4-chloro-5-isoquinolinesulfonyl)pyrrolidine]", "values": [
      {"measurement": "IC50", "setting": "[1]", "result": "< 10", "unit": "µM"},
      {"measurement": "inhibition in vivo at 3000 µM", "setting": "[2]", "result": "≥ 20", "unit": "%"},
      {"measurement": "IC50", "setting": "[3]", "result": "10 to 40", "unit": "µM"}
    ]}
  ]
}
